Entries after “also recorded” stand apart in the source; their conditions may differ.
System: engineered heart tissue (EHT) rings from heart cells of neonatal rats
Assay: isometric contraction experiments of single EHT rings (twitch tension, calcium response curves)
Assay type: cell-based, rat
Details: culture medium supplemented with 10 pg/ml insulin vs untreated controls; n=4 vs n=3
Experimental: In a further step, the force-generating engineered heart tissue rings, which are in contact with each other, are cultured under conditions which allow the fusion of the contacted ring structures to form an artificial heart muscle construct. For this purpose, the engineered heart tissue rings are normally incubated in culture dishes, wherein the rings are submersed in appropriate culture medium. If a holding device is used for culturing, the device should be designed to allow the tissue rings to stay in continuous contact with the culture medium. The choice of the culture medium is not critical. Conventional media for culturing cardiac myocytes may be used. Such media are known in the art and described, for example, in Zimmermann, W. H. et al., Circulation 106, I 151-7 (2002) and published International Application WO 01/55297. […]
FIGS. 1A-1F show the influences of oxygen, load, and insulin in isometric contraction experiments in single engineered heart tissue (EHT) rings (TT: twitch tension). […] To increase size, 5 EHT rings (FIG. 1D) were stacked in a custom made device that facilitate EHT fusion and contractions under auxotonic load (FIG. 1E), resulting in synchronously contracting multiring EHT constructs (FIG. 1F) ready for in vivo engraftment. *P<0.05 vs. 21% 02, static load, and culture in the absence of insulin (Ctr.), respectively by repeated ANOVA. […]

## insulin
  contracting characteristics (twitch tension) of EHT rings: benefited; also recorded: enhanced contracting characteristics
